From US10689366B2, “Compounds for MALT1 degredation” (Cornell University, priority 2016, dated 2020)

Target: T1, MALT1 (Homo sapiens, UniProt Q9UDY8)
T1 sequence (Q9UDY8 1-824): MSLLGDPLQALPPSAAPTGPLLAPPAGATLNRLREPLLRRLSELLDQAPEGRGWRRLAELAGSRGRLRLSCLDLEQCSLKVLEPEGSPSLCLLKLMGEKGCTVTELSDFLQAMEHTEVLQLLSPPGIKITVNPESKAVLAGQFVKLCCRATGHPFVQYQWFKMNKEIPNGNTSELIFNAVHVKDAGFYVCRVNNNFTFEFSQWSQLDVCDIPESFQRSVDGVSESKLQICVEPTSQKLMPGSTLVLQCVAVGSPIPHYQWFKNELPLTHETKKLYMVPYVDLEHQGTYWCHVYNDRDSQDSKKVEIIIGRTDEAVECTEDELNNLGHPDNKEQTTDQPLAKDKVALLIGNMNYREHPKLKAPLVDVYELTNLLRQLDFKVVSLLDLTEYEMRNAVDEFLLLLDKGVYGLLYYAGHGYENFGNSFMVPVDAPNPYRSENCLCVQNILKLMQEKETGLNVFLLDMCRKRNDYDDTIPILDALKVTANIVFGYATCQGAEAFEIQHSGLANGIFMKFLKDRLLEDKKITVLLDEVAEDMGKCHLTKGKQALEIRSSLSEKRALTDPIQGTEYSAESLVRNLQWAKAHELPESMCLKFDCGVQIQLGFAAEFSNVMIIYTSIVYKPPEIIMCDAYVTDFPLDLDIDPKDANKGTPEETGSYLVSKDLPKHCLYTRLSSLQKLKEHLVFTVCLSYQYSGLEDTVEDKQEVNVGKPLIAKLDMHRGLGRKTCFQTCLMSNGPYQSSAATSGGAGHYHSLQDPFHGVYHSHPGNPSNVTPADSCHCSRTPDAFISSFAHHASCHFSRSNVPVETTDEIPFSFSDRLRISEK
Assay: MALT1 degradation assay (Western blot) in OCI-Ly3 cells
Format: cell-based
Parameters: endogenous in cells; host or cells: OCI-Ly3
Details: 48 hours, normalized to Actin, relative to vehicle treated cells
Method: In the experiments, OCI-Ly3 cells were grown for 6 hours in the presence of the indicated concentrations of Examples 1-6, 9, and 10. Proteins were extracted, analyzed by Western blot, and membranes were immunoblotted for MALT1, CRBN, and Actin. Table 3 provides the results of experimental data obtained from the example compounds of the present disclosure. In particular, OCI-Ly3 cells were grown for 48 hours in the presence of the indicated concentrations of Examples 1-19. Proteins were extracted, analyzed by Western blot, and membranes were immunoblotted for MALT1, CRBN, and Actin. Western blot bands were quantified using Image Lab software. Results were normalized to Actin expression and presented as % MALT1 degradation relative to vehicle treated cells.

Row | SMILES | % MALT1 degradation at 1 µM
1 | CO[C@@H](C)c1c(NC(=O)Nc2cnc(-n3cc(CNC(=O)CCOCCOCCOCCN4CCN(Cc5ccc(COc6cccc7c6CN([C@H]6CCC(=O)NC6=O)C7=O)cc5)CC4)cn3)c(Cl)c2)cnc2cc(Cl)nn12 [Example 18, N-((1-(3-Chloro-5-(3-(2-chloro-7-((S)-1-methoxyethyl)pyrazolo[1,5-a]pyrimidin-6-yl)ureido)pyridin-2-yl)-1H-pyrazol-4-yl)methyl)-3-(2-(2-(2-(4-(4-(((2-((5)-2,6-dioxopiperidin-3-yl)-1-oxoisoindolin-4-yl)oxy)methyl)benzyl)piperazin-1-yl)ethoxy)ethoxy)ethoxy)propanamide] | >50%
2 | CO[C@@H](C)c1c(NC(=O)Nc2cc(Cl)cnc2OCCNC(=O)CCCCCCCCOc2cccc3c2C(=O)N(C2CCC(=O)NC2=O)C3=O)cnc2cc(Cl)nn12 (stereo partly drawn) [Example 16, N-(2-((5-Chloro-3-(3-(2-chloro-7-((S)-1-methoxyethyl)pyrazolo[1,5-a]pyrimidin-6-yl)ureido)pyridin-2-yl)oxy)ethyl)-9-((2-(2,6-dioxopiperidin-3-yl)-1,3-dioxoisoindolin-4-yl)oxy)nonanamide] | no degradation

Same assay, conditions: 48 hours, normalized to Actin, relative to vehicle treated cells, read-out: % MALT1 Degradation at 1 μM

Row | SMILES | % MALT1 degradation at 1 µM [%]
3 | CO[C@@H](C)c1c(NC(=O)Nc2cc(Cl)cnc2OCCNC(=O)CCOCCOCCOCCOCCNc2cccc3c2CN(C2CCC(=O)NC2=O)C3=O)cnc2cc(Cl)nn12 (stereo partly drawn) [Example 11, N-(2-((5-Chloro-3-(3-(2-chloro-7-((S)-1-methoxyethyl)pyrazolo[1,5-a]pyrimidin-6-yl)ureido)pyridin-2-yl)oxy)ethyl)-1-((2-(2,6-dioxopiperidin-3-yl)-1-oxoisoindolin-4-yl)amino)-3,6,9,12-tetraoxapentadecan-15-amide] | > 50
4 | Cc1c(NC(=O)Nc2cnc(-n3cc(CNC(=O)CCOCCOCCNc4cccc5c4CN(C4CCC(=O)NC4=O)C5=O)cn3)c(Cl)c2)cnc2ccc(Br)cc12 (stereo not drawn) [Example 8, N-((1-(5-(3-(6-Bromo-4-methylquinolin-3-yl)ureido)-3-chloropyridin-2-yl)-1H-pyrazol-4-yl)methyl)-3-(2-(2-((2-(2,6-dioxopiperidin-3-yl)-1-oxoisoindolin-4-yl)amino)ethoxy)ethoxy)propanamide] | 31 to 50
5 | CO[C@@H](C)c1c(NC(=O)Nc2cc(Cl)cnc2OCCNC(=O)CCOCCOCCOCCN2CCN(Cc3ccc(COc4cccc5c4CN([C@H]4CCC(=O)NC4=O)C5=O)cc3)CC2)cnc2cc(Cl)nn12 [Example 19, N-(2-((5-Chloro-3-(3-(2-chloro-7-((S)-1-methoxyethyl)pyrazolo[1,5-a]pyrimidin-6-yl)ureido)pyridin-2-yl)oxy)ethyl)-3-(2-(2-(2-(4-(4-(((2-((S)-2,6-dioxopiperidin-3-yl)-1-oxoisoindolin-4-yl)oxy)methyl)benzyl)piperazin-1-yl)ethoxy)ethoxy)ethoxy)propanamide] | > 50
6 | CC(C)c1c(NC(=O)Nc2cnc(-n3cc(CNC(=O)CCOCCOCCNc4cccc5c4CN(C4CCC(=O)NC4=O)C5=O)cn3)c(Cl)c2)cnc2cc(Cl)nn12 (stereo not drawn) [Example 7, N-((1-(3-Chloro-5-(3-(2-chloro-7-isopropylpyrazolo[1,5-a]pyrimidin-6-yl)ureido)pyridin-2-yl)-1H-pyrazol-4-yl)methyl)-3-(2-(2-((2-(2,6-dioxopiperidin-3-yl)-1-oxoisoindolin-4-yl)amino)ethoxy)ethoxy)propanamide] | 31 to 50
7 | CO[C@@H](C)c1c(NC(=O)Nc2cc(Cl)cnc2OCCNC(=O)CCOCCNc2cccc3c2CN(C2CCC(=O)NC2=O)C3=O)cnc2cc(Cl)nn12 (stereo partly drawn) [Example 12, N-(2-((5-Chloro-3-(3-(2-chloro-7-((S)-1-methoxyethyl)pyrazolo[1,5-a]pyrimidin-6-yl)ureido)pyridin-2-yl)oxy)ethyl)-3-(2-((2-(2,6-dioxopiperidin-3-yl)-1-oxoisoindolin-4-yl)amino)ethoxy)piopanamide] | 31 to 50
8 | CO[C@@H](C)c1c(NC(=O)Nc2cc(Cl)cnc2OCCNC(=O)CCOCCOCCOCCOCCOCCOCCNc2cccc3c2C(=O)N(C2CCC(=O)NC2=O)C3=O)cnc2cc(Cl)nn12 (stereo partly drawn) [Example 15, N-(2-((5-Chloro-3-(3-(2-chloro-7-((S)-1-methoxyethyl)pyrazolo[1,5-a]pyrimidin-6-yl)ureido)pyridin-2-yl)oxy)ethyl)-1-((2-(2,6-dioxopiperidin-3-yl)-1,3-dioxoisoindolin-4-yl)amino)-3,6,9,12,15,18-hexaoxahenicosan-21-amide] | > 50
9 | C[C@@H](c1c(NC(=O)Nc2cnc(-n3nccn3)c(Cl)c2)cnc2cc(Cl)nn12)N(C)C(=O)CCOCCOCCNc1cccc2c1CN(C1CCC(=O)NC1=O)C2=O (stereo partly drawn) [Example 4, N—((S)-1-(2-Chloro-6-(3-(5-chloro-6-(2H-1,2,3-triazol-2-yl)pyridin-3-yl)ureido)pyrazolo[1,5-a]pyrimidin-7-yl)ethyl)-3-(2-(2-((2-(2,6-dioxopiperidin-3-yl)-1-oxoisoindolin-4-yl)amino)ethoxy)ethoxy)-N-methylpropanamide] | 31 to 50
10 | CO[C@@H](C)c1c(NC(=O)Nc2cnc(-n3cc(CNC(=O)CCOCCOCCOCCOCCNc4cccc5c4C(=O)N(C4CCC(=O)NC4=O)C5=O)cn3)c(Cl)c2)cnc2cc(Cl)nn12 (stereo partly drawn) [Example 2, N-((1-(3-Chloro-5-(3-(2-chloro-7-((S)-1-methoxyethyl)pyrazolo[1,5-a]pyrimidin-6-yl)ureido)pyridin-2-yl)-1H-pyrazol-4-yl)methyl)-1-((2-(2,6-dioxopiperidin-3-yl)-1,3-dioxoisoindolin-4-yl)amino)-3,6,9,12-tetraoxapentadecan-15-amide] | > 50
11 | C[C@@H](c1c(NC(=O)Nc2cnc(-n3nccn3)c(Cl)c2)cnc2cc(Cl)nn12)N(C)C(=O)CCOCCOCCOCCN1CCN(Cc2ccc(COc3cccc4c3CN([C@H]3CCC(=O)NC3=O)C4=O)cc2)CC1 [Example 17, N-((S)-1-(2-Chloro-6-(3-(5-chloro-6-(2H-1,2,3-triazol-2-yl)pyridin-3-yl)ureido)pyrazolo[1,5-a]pyrimidin-7-yl)ethyl)-3-(2-(2-(2-(4-(4-(((2-((S)-2,6-dioxopiperidin-3-yl)-1-oxoisoindolin-4-yl)oxy)methyl)benzyl)piperazin-1-yl)ethoxy)ethoxy)ethoxy)-N-methylpropanamide] | > 50
12 | CO[C@@H](C)c1c(NC(=O)Nc2cc(Cl)cnc2OCCNC(=O)CCOCCOCCOCCOCCC(=O)N[C@H](C(=O)N2C[C@H](O)CC2C(=O)NCc2ccc(-c3scnc3C)cc2)C(C)(C)C)cnc2cc(Cl)nn12 (stereo partly drawn) [Example 9, N^1-(2-((5-Chloro-3-(3-(2-chloro-7-((S)-1-methoxyethyl)pyrazolo[1,5-a]pyrimidin-6-yl)ureido)pyridin-2-yl)oxy)ethyl)-N^16-((2S)-1-((4R)-4-hydroxy-2-((4-(4-methylthiazol-5-yl)benzyl)carbamoyl)pyrrolidin-1-yl)-3,3-dimethyl-1-oxobutan-2-yl)-4,7,10,13-tetraoxahexadecanediamide] | 10 to 30
13 | CO[C@@H](C)c1c(NC(=O)Nc2cc(Cl)cnc2OCCNC(=O)CCOCCOCCNc2cccc3c2CN(C2CCC(=O)NC2=O)C3=O)cnc2cc(Cl)nn12 (stereo partly drawn) [Example 6, N-(2-((5-Chloro-3-(3-(2-chloro-7-((S)-1-methoxyethyl)pyrazolo[1,5-a]pyrimidin-6-yl)ureido)pyridin-2-yl)oxy)ethyl)-3-(2-(2-((2-(2,6-dioxopiperidin-3-yl)-1-oxoisoindolin-4-yl)amino)ethoxy)ethoxy)propanamide] | > 50
14 | CO[C@@H](C)c1c(NC(=O)Nc2cc(Cl)cnc2OCCNC(=O)CCOCCOCCOCCOCCNc2cccc3c2C(=O)N(C2CCC(=O)NC2=O)C3=O)cnc2cc(Cl)nn12 (stereo partly drawn) [Example 3, N-(2-((5-Chloro-3-(3-(2-chloro-7-((S)-1-methoxyethyl)pyrazolo[1,5-a]pyrimidin-6-yl)ureido)pyridin-2-yl)oxy)ethyl)-1-((2-(2,6-dioxopiperidin-3-yl)-1,3-dioxoisoindolin-4-yl)amino)-3,6,9,12-tetraoxapentadecan-15-amide] | > 50
15 | CO[C@@H](C)c1c(NC(=O)Nc2cc(Cl)cnc2OCCNC(=O)CCOCCOCCNc2cccc3c2C(=O)N(C2CCC(=O)NC2=O)C3=O)cnc2cc(Cl)nn12 (stereo partly drawn) [Example 14, N-(2-((5-Chloro-3-(3-(2-chloro-7-((S)-1-methoxyethyl)pyrazolo[1,5-a]pyrimidin-6-yl)ureido)pyridin-2-yl)oxy)ethyl)-3-(2-(2-((2-(2,6-dioxopiperidin-3-yl)-1,3-dioxoisoindolin-4-yl)amino)ethoxy)ethoxy)propanamide] | > 50
